Reference: ChEMBL document CHEMBL4800728, “Data for DCP probe JNJ-54119936” (2021)

Experiments:
[1] = molecular target: Activin receptor type-1B (Homo sapiens) (UniProt P36896); experiment: Alk4 Invitrogen kinase panel; conditions: Compound concentration 10.0 uM
[2] = molecular target: Calcium/calmodulin-dependent protein kinase type II subunit beta (Homo sapiens) (UniProt Q13554); experiment: CaMKIIbeta Invitrogen kinase panel; conditions: Compound concentration 10.0 uM
[3] = molecular target: Cyclin-dependent kinase 1/cyclin B (Homo sapiens) (UniProt P06493+P14635+Q8WWL7+O95067); experiment: CDK1/cyclinB Invitrogen kinase panel; type: protein-complex assay; conditions: Compound concentration 10.0 uM
[4] = molecular target: Dual specificity protein kinase CLK2 (Homo sapiens) (UniProt P49760); experiment: CLK2 Invitrogen kinase panel; conditions: Compound concentration 10.0 uM
[5] = molecular target: Casein kinase II subunit alpha (Homo sapiens) (UniProt P68400); experiment: CK2alpha1 Invitrogen kinase panel; conditions: Compound concentration 10.0 uM
[6] = molecular target: Casein kinase II subunit alpha' (Homo sapiens) (UniProt P19784); experiment: CK2alpha2 Invitrogen kinase panel; conditions: Compound concentration 10.0 uM
[7] = molecular target: Ephrin type-A receptor 2 (Homo sapiens) (UniProt P29317); experiment: EphA2 Invitrogen kinase panel; conditions: Compound concentration 10.0 uM
[8] = molecular target: Fibroblast growth factor receptor 1 (Homo sapiens) (UniProt P11362); experiment: FGFR1 Invitrogen kinase panel; conditions: Compound concentration 10.0 uM
[9] = molecular target: Receptor-type tyrosine-protein kinase FLT3 (Homo sapiens) (UniProt P36888); experiment: Flt3 Invitrogen kinase panel; conditions: Compound concentration 10.0 uM
[10] = molecular target: Mitogen-activated protein kinase 1 (Homo sapiens) (UniProt P28482); experiment: ERK2 Invitrogen kinase panel; conditions: Compound concentration 10.0 uM
[11] = molecular target: Serine/threonine-protein kinase PAK 3 (Homo sapiens) (UniProt O75914); experiment: PAK3 Invitrogen kinase panel; conditions: Compound concentration 10.0 uM
Chain of Serine/threonine-protein kinase PAK 3 (Homo sapiens) (O75914 whole entry, looked up): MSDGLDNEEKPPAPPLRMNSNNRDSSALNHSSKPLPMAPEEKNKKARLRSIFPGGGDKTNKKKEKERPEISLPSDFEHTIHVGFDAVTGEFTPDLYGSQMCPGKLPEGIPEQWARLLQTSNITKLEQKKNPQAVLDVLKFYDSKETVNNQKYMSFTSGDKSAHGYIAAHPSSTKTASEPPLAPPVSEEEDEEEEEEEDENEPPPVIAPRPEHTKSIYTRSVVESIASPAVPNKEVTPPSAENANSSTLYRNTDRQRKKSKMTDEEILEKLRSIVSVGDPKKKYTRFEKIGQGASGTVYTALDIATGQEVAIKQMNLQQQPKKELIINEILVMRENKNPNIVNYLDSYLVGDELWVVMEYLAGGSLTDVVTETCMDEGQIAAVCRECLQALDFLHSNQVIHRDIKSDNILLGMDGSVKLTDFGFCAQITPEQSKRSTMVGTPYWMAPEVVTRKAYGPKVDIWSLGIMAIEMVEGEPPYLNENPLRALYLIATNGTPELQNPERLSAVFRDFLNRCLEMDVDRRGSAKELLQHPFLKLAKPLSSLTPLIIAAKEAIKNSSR

[12] = molecular target: Platelet-derived growth factor receptor beta (Homo sapiens) (UniProt P09619); experiment: PDGFRbeta Invitrogen kinase panel; conditions: Compound concentration 10.0 uM
[13] = molecular target: Serine/threonine-protein kinase PLK1 (Homo sapiens) (UniProt P53350); experiment: Plk1 Invitrogen kinase panel; conditions: Compound concentration 10.0 uM
[14] = molecular target: Proto-oncogene tyrosine-protein kinase receptor Ret (Homo sapiens) (UniProt P07949); experiment: Ret Invitrogen kinase panel; conditions: Compound concentration 10.0 uM
Chain of Proto-oncogene tyrosine-protein kinase receptor Ret (Homo sapiens) (P07949 whole entry): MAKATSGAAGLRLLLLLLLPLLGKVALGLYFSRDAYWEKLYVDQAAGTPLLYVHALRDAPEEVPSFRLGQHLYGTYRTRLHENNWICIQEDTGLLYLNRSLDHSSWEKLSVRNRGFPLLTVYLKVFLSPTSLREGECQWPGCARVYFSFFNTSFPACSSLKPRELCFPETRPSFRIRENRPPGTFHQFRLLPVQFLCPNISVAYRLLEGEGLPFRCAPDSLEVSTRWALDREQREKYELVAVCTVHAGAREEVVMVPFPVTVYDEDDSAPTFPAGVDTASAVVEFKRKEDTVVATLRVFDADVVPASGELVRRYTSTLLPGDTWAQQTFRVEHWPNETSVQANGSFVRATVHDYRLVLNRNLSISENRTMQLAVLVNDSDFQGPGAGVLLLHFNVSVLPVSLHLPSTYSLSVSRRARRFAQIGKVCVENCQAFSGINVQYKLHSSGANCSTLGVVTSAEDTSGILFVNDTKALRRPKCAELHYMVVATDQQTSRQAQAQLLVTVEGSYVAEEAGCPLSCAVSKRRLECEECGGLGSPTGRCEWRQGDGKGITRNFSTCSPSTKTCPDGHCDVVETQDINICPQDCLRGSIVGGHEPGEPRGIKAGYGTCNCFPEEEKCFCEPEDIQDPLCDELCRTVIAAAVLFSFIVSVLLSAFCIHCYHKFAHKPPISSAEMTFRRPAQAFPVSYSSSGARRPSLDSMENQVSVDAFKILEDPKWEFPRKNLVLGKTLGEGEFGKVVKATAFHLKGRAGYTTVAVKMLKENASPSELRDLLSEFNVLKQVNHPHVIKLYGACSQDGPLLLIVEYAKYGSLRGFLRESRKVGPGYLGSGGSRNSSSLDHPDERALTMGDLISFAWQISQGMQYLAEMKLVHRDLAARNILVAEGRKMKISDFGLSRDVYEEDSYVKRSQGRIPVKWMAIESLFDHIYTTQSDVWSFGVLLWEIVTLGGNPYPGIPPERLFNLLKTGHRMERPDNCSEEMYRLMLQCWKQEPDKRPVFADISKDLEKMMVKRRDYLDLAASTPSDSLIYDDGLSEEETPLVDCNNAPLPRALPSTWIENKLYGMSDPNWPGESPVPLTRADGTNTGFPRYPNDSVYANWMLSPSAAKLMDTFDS

[15] = molecular target: T1, Oxysterols receptor LXR-beta (Homo sapiens) (UniProt P55055); experiment: (§1) LXRbeta In-house nuclear receptor screen; conditions: Compound concentration 3.0 uM
T1 sequence (whole entry): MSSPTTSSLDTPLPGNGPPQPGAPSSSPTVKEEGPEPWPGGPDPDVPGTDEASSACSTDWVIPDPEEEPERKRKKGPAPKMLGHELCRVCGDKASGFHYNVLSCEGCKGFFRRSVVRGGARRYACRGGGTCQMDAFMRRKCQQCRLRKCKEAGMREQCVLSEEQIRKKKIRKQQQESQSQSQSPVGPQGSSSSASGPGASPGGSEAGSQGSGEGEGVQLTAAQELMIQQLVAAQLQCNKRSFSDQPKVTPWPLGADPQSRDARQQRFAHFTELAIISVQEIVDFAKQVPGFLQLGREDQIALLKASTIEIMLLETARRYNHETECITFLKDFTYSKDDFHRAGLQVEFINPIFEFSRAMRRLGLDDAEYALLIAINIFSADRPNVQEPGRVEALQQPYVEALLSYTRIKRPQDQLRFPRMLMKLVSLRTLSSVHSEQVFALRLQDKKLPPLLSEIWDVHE

[16] = molecular target: Oxysterols receptor LXR-beta (Homo sapiens, UniProt P55055); experiment: as §1
[17] = molecular target: Type-1 angiotensin II receptor (Homo sapiens) (UniProt P30556); experiment: AT1 (h) CEREP screen; conditions: Compound concentration 10.0 uM
[18] = molecular target: Endothelin-1 receptor (Homo sapiens) (UniProt P25101); experiment: ETA (h) CEREP screen; conditions: Compound concentration 10.0 uM
[19] = molecular target: C-X-C chemokine receptor type 2 (Homo sapiens) (UniProt P25025); experiment: CXCR2 (h) CEREP screen; conditions: Compound concentration 1.0 uM
[20] = molecular target: T2, Muscarinic acetylcholine receptor M1 (Homo sapiens) (UniProt P11229); experiment: M1 (h) CEREP screen
T2 sequence (whole entry): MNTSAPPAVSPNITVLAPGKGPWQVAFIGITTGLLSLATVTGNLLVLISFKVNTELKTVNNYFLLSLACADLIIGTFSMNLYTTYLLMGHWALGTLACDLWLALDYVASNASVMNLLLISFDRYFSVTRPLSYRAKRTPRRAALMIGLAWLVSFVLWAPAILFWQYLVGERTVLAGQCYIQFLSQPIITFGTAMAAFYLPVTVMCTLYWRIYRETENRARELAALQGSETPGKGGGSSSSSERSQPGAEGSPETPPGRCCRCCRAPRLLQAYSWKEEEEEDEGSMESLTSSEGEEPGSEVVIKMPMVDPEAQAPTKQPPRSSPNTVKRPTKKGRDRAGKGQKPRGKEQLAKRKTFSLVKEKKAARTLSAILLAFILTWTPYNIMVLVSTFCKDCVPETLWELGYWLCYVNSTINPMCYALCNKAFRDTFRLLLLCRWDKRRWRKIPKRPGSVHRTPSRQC

[21] = molecular target: Mu-type opioid receptor (Homo sapiens) (UniProt P35372); experiment: Mu (h) CEREP screen; conditions: Compound concentration 10.0 uM
[22] = molecular target: 5-hydroxytryptamine receptor 6 (Homo sapiens) (UniProt P50406); experiment: 5-HT6 (h) CEREP screen
Chain of 5-hydroxytryptamine receptor 6 (Homo sapiens) (P50406 whole entry): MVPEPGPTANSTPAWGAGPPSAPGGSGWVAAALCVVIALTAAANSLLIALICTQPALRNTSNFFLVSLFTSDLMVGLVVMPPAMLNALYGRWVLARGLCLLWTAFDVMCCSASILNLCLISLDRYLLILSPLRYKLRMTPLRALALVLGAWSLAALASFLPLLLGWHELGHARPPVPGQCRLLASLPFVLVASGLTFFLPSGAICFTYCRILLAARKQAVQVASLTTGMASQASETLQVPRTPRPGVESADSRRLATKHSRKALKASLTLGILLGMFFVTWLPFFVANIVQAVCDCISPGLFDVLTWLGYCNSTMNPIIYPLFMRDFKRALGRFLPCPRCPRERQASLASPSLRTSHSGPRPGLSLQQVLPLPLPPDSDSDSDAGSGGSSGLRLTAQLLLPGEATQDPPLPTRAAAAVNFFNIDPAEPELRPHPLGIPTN

[23] = molecular target: Sodium-dependent noradrenaline transporter (Homo sapiens) (UniProt P23975); experiment: norepinephrine transporter (h) CEREP screen
Chain of Sodium-dependent noradrenaline transporter (Homo sapiens) (P23975 whole entry): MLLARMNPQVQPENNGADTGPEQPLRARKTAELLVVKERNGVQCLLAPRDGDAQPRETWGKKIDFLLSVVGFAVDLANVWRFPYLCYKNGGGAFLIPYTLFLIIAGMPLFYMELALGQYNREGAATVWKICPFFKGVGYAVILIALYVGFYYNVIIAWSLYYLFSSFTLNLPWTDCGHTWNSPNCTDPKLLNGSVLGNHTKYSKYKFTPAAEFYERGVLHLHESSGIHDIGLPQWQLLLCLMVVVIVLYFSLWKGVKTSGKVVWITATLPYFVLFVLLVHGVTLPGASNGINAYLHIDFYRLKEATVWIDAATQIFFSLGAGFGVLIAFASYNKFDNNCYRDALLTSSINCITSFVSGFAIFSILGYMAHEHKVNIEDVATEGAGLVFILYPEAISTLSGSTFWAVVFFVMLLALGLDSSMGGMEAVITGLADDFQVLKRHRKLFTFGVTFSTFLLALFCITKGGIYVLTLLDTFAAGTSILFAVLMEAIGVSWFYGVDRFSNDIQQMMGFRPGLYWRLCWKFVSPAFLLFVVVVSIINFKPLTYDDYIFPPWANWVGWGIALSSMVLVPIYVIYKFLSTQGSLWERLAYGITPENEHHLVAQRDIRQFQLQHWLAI

[24] = molecular target: Sodium-dependent serotonin transporter (Homo sapiens) (UniProt P31645); experiment: 5-HT transporter (h) CEREP screen; conditions: Compound concentration 10.0 uM
[25] = molecular target: Peroxisome proliferator-activated receptor alpha (Homo sapiens) (UniProt Q07869); experiment: PPARalpha Indigo Bioscience nuclear receptor screen; conditions: Compound concentration 0.3 uM
[26] = molecular target: 5-hydroxytryptamine receptor 2A (Homo sapiens) (UniProt P28223); conditions: Compound concentration 10.0 uM
[27] = molecular target: 5-hydroxytryptamine receptor 5A (Homo sapiens) (UniProt P47898); conditions: Compound concentration 10.0 uM
Chain of 5-hydroxytryptamine receptor 5A (Homo sapiens) (P47898 whole entry): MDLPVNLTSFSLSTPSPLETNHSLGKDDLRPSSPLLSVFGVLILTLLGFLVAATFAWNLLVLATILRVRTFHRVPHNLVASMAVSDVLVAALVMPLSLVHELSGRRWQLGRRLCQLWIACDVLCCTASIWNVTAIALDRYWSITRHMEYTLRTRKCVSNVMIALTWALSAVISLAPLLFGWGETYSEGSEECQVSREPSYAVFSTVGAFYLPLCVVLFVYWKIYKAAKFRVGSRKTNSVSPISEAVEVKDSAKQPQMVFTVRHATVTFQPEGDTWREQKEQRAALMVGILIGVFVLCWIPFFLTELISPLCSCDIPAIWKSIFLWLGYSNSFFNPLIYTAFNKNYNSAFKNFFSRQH

[28] = molecular target: D(4) dopamine receptor (Homo sapiens) (UniProt P21917); conditions: Compound concentration 10.0 uM
[29] = molecular target: Sodium-dependent noradrenaline transporter (Homo sapiens) (UniProt P23975); conditions: Compound concentration 10.0 uM
[30] = molecular target: Sodium-dependent dopamine transporter (Homo sapiens) (UniProt Q01959); conditions: Compound concentration 10.0 uM
Chain of Sodium-dependent dopamine transporter (Homo sapiens) (Q01959 whole entry): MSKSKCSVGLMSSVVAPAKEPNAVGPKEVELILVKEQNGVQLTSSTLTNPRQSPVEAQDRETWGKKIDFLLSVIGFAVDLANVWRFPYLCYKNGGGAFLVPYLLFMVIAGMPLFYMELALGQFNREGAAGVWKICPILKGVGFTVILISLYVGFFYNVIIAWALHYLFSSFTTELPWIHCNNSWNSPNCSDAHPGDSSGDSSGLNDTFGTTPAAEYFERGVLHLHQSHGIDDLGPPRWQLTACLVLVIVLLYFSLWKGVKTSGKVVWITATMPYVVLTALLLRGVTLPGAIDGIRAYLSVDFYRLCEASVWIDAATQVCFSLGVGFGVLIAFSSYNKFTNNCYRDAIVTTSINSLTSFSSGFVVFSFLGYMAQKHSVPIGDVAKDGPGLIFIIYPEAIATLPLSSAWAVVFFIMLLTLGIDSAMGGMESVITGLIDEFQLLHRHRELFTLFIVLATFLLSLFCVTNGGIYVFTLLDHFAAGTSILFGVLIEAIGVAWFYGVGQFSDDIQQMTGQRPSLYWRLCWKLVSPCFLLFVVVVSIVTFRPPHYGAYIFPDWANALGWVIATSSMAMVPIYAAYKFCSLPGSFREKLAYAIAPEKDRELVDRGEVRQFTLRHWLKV

[31] = molecular target: Histamine H3 receptor (Homo sapiens) (UniProt Q9Y5N1); conditions: Compound concentration 10.0 uM
Chain of Histamine H3 receptor (Homo sapiens) (Q9Y5N1 whole entry): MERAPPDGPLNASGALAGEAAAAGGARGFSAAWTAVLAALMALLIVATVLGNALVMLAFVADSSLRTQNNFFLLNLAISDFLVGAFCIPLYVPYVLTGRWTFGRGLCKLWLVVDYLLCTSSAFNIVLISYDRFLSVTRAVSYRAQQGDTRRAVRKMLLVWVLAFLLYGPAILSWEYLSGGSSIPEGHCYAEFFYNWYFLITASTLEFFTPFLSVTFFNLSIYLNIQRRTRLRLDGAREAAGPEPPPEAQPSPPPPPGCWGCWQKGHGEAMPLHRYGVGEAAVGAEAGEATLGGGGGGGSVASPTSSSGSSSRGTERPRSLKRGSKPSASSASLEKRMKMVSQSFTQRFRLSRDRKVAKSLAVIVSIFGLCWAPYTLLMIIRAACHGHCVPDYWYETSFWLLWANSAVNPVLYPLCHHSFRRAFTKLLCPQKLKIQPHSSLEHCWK

[32] = molecular target: Alpha-1A adrenergic receptor (Homo sapiens) (UniProt P35348); conditions: Compound concentration 10.0 uM
[33] = molecular target: Beta-1 adrenergic receptor (Homo sapiens) (UniProt P08588); conditions: Compound concentration 10.0 uM
[34] = molecular target: Muscarinic acetylcholine receptor M4 (Homo sapiens) (UniProt P08173); conditions: Compound concentration 10.0 uM
[35] = molecular target: Sigma non-opioid intracellular receptor 1 (Homo sapiens, UniProt Q99720); conditions: Compound concentration 10.0 uM
[36] = molecular target: Nuclear receptor ROR-gamma (Homo sapiens) (UniProt P51449)

Chain of Calcium/calmodulin-dependent protein kinase type II subunit beta (Homo sapiens) (Q13554 whole entry): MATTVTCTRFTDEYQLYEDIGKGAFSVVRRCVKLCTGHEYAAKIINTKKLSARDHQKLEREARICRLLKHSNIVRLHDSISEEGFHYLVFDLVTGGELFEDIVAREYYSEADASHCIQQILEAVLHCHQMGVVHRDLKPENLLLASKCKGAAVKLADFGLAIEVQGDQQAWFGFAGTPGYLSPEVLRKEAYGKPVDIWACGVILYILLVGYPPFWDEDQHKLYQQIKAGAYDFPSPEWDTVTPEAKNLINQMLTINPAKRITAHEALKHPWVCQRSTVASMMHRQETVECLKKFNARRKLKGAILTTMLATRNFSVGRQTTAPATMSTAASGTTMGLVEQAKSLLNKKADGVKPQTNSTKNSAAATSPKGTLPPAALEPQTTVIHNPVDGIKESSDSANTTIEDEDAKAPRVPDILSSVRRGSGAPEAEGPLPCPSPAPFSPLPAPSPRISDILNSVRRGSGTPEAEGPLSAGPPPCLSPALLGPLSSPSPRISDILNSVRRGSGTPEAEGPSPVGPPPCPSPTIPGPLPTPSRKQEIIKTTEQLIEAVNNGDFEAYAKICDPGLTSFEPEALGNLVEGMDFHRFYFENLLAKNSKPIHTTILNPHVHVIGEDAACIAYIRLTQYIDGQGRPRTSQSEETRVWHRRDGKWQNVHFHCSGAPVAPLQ

COc1nc2ccc([C@@](O)(c3ccccc3)C3CCN(C(C)=O)CC3)cc2c(Cl)c1Cc1ccc(-n2cccn2)cc1 [JNJ-54119936]
inhibition [1]: -5%
inhibition [2]: 7%
inhibition [3]: 0%
inhibition [4]: 4%
inhibition [5]: 2%
inhibition [6]: 4%
inhibition [7]: 6%
inhibition [8]: -2%
inhibition [9]: 4%
inhibition [10]: 13%
inhibition [11]: 6%
inhibition [12]: 5%
inhibition [13]: -1%
inhibition [14]: 3%
inhibition [15]: 10%
IC50 [16]: ~5 µM
inhibition [17]: 11%
inhibition [18]: 12%
inhibition [19]: 10%
inhibition ([20]; Compound concentration 1.0 uM): 12%
inhibition ([20]; Compound concentration 10.0 uM): 21%
inhibition [21]: 15%
inhibition ([22]; Compound concentration 1.0 uM): 20%
inhibition ([22]; Compound concentration 10.0 uM): 22%
inhibition ([23]; Compound concentration 1.0 uM): 34%
inhibition ([23]; Compound concentration 10.0 uM): 16%
inhibition [24]: 13%
inhibition [25]: 1.34%
inhibition [26]: 6.87%
inhibition [27]: -0.46%
inhibition [28]: -5.45%
inhibition [29]: 21.7%
inhibition [30]: 21%
inhibition [31]: 0.46%
inhibition [32]: 10.3%
inhibition [33]: 15.2%
inhibition [34]: 8.86%
inhibition [35]: 102%
qKD [36]: 5.3 nM
